According to patent US20240124399A1, “NOVEL INDOLE DERIVATIVE, AND USE THEREOF FOR TREATING DISEASES RELATED TO ADVANCED GLYCATION END PRODUCTS” (METACEN THERAPEUTICS, priority 2021, published 2024):

Columns and labels:
[1] = Methylglyoxal (MGO) trapping ability: free MGO concentration by HPLC; type: biochemical; details: for MGO concentration on day 1 (free MGO) / MGO concentration on day 7 (free MGO): compound 1:1 with MGO in PBS pH 7.4, 37° C.; for MGO concentration on day 1 (free MGO): day 1, HPLC; for MGO concentration on day 7 (free MGO): day 7, HPLC
Description: The objective of this experimental example was to confirm whether the compound of the present invention has the ability to trap methylglyoxal (MGO) by analyzing the concentration of free methylglyoxal (MGO) by high performance liquid chromatography (HPLC).
Specifically, a mixture was prepared by adding methylglyoxal (MGO) to phosphate buffered saline (PBS, Cat no. 10010023, pH 7.4). […]

[2] = Methylglyoxal (MGO) trapping ability: fluorescence intensity of reaction product; type: biochemical; details: compound 1.0 mM in MGO+PBS pH 7.4, 37° C., 1 day; ex 355 nm / em 460 nm; 10×10^3 or more = ability to trap MGO
Description: Methylglyoxal (MGO) is a main precursor of advanced glycation end products that cause complications due to diabetes mellitus. Successful trapping of methylglyoxal (MGO) can inhibit the production of advanced glycation end products. Therefore, the objective of this experimental example was to confirm whether the compound of the present invention has the ability to trap methylglyoxal (MGO), a precursor before the production of advanced glycation end products.
A mixture was prepared by adding methylglyoxal (MGO) to phosphate buffered saline (PBS, Cat no. 10010023, pH 7.4). The mixture (MGO+PBS) was treated with the compound of the above example at a concentration of 1.0 mM and then cultured at 37° C. for 1 day. The fluorescence intensity of the reaction product was measured at an excitation wavelength of 355 nm and an emission wavelength of 460 nm using a VICTOR™X3 multilabel plate reader.
The higher the fluorescence intensity measured from the reaction product, the higher the ability of the compound to trap methylglyoxal. In addition, in this experimental example, when the fluorescence intensity was 10×10^3 or more, it was determined that the compound had the ability to trap methylglyoxal.

Compound	MGO concentration on day 1 (free MGO) [1] [µM]	MGO concentration on day 7 (free MGO) [1] [µM]	Fluorescence intensity on day 1 (×10^3) [2]	concentration of free methylglyoxal relative to the control group, day 1 ([1]; day 1 after incubation, control group PBS+MGO)	concentration of free methylglyoxal relative to the control group, day 7 ([1]; day 7 after incubation, control group PBS+MGO)
CCCC(=O)N[C@H](CO)Cc1c[nH]c2ccc(OC(=O)CCC)cc12 [Compound 9, (S)-3-(2-butyramido-3-hydroxypropyl)-1H-indol-5-yl butyrate]	551.993	403.462	0.75 ± 0.30 ×10^3	–	–
NCCCCNCCCNC(=O)OC[C@@H](N)Cc1c[nH]c2ccc(O)cc12 [Compound 10, (S)-2-amino-3-(5-hydroxy-1H-indol-3-yl)propyl (3-((4-aminobutyl)amino)propyl)carbamate]	444.11	269.28	223.01 ± 3.74 ×10^3	about 12%	about 38%
CCCC(=O)OC[C@@H](N)Cc1c[nH]c2ccc(OC(=O)CCC)cc12 [Compound 8, (S)-2-amino-3-(5-(butyryloxy)-1H-indol-3-yl)propyl butyrate]	501.09	412.65	21.74 ± 0.50 ×10^3	–	–
